Our source for the Ki, EC50 and Emax values is patent publication US9994571B2, “10-substituted morphinan hydantoins” (Purdue Pharma L.P., priority 2013, dated 2018).

Where two headings read alike, the source gives them in different places.

Test [1] deals with μ-opioid receptor (Homo sapiens (Human), UniProt P35372). Put plainly: μ-opioid receptor radioligand dose-displacement binding assay ([3H]-diprenorphine). The following applies: binding assays using HEK-293 cells. The method, then:
Radioligand dose-displacement binding assays for μ-opioid receptors used 0.3 nM [^3H]-diprenorphine (Perkin Elmer, Shelton, Conn.), with […] membrane protein/well in a final volume of 500 μl binding buffer (10 mM MgCl2, 1 mM EDTA, 5% DMSO, 50 mM HEPES, pH 7.4). Reactions were carried out in the absence or presence of increasing concentrations of unlabeled naloxone. All reactions were conducted in 96-deep well polypropylene plates for 2 hours at room temperature. Binding reactions were terminated by rapid filtration onto 96-well Unifilter GF/C filter plates (Perkin Elmer, Shelton, Conn.), presoaked in 0.5% polyethylenimine using a 96-well tissue harvester (Perkin Elmer, Shelton, Conn.) followed by performing three filtration washes with 500 μl of ice-cold binding buffer. Filter plates were subsequently dried at 50° C. for 2-3 hours. BetaScint scintillation cocktail (Perkin Elmer, Shelton, Conn.) was added (50 μl/well), and plates were counted using a Packard Top-Count for 1 min/well. The data were analyzed using the one-site competition curve fitting functions in GraphPad PRISM™ v. 3.0 or higher (San Diego, Calif.), or an in-house function for one-site competition curve-fitting.
(§1) In TABLE 1, binding affinity of certain Compounds of the Invention to the μ- and κ-opioid receptors was determined as described above for binding assays using HEK-293 cells.

In test [2] the target is T1, κ opioid receptor (Homo sapiens (Human), UniProt P41145). In words: κ-opioid receptor radioligand dose-displacement binding assay ([3H]-U69,593). The following applies: binding assays using HEK-293 cells. How it is done:
Membranes from HEK-293 cells, CHO or U-2 OS cells expressing the recombinant human κ opioid receptor (κ) were prepared by lysing cells in ice cold hypotonic buffer (2.5 mM MgCl2, 50 mM HEPES, pH 7.4) (10 mL/10 cm dish) followed by homogenization with a tissue grinder/Teflon pestle. Membranes from a cell line naturally expressing kappa opioid receptor can also be used. Membranes were collected by centrifugation at 30,000×g for 15 min at 4° C. and pellets were resuspended in hypotonic buffer to a final concentration of 1-3 mg/mL. Protein concentrations were determined using the BioRad protein assay reagent with bovine serum albumen as standard. Aliquots of K receptor membranes were stored at −80° C.
Radioligand dose displacement assays used 0.4 nM [^3H]-U69,593 (GE Healthcare, Piscataway, N.J.; 40 Ci/mmole) with 15 μg membrane protein (recombinant κ opioid receptor expressed in HEK 293 cells; in-house prep) in a final volume of 200 μl binding buffer (5% DMSO, 50 mM Trizma base, pH 7.4). Non-specific binding was determined in the presence of 10 μM unlabeled naloxone or U69,593. All reactions were performed in 96-well polypropylene plates for 1 hour at a temperature of about 25° C. Binding reactions were terminated by rapid filtration onto 96-well Unifilter GF/C filter plates (Perkin Elmer, Shelton, Conn.) presoaked in 0.5% polyethylenimine (Sigma). Harvesting was performed using a 96-well tissue harvester (Perkin Elmer, Shelton, Conn.) followed by five filtration washes with 200 μl ice-cold binding buffer. Filter plates were subsequently dried at 50° C. for 1-2 hours. Fifty μl/well scintillation cocktail (Perkin Elmer, Shelton, Conn.) was added and plates were counted in a Packard Top-Count for 1 min/well.
as §1

Test [3] addresses T1, κ opioid receptor. Put plainly: κ-opioid receptor [35S]GTPγS functional assay. It counts as biochemical. How it is done: Functional [^35S]GTPγS binding assays were conducted as follows. κ opioid receptor membrane solution was prepared by sequentially adding final concentrations of 0.026 μg/μl κ membrane protein (in-house), 10 μg/mL saponin, 3 μM GDP and 0.20 nM [^35S]GTPγS to binding buffer (100 mM NaCl, 10 mM MgCl2, 20 mM HEPES, pH 7.4) on ice. The prepared membrane solution (190 μl/well) was transferred to 96-shallow well polypropylene plates containing 10 μl of 20× concentrated stock solutions of agonist prepared in DMSO. Plates were incubated for 30 min at a temperature of about 25° C. with shaking. Reactions were terminated by rapid filtration onto 96-well Unifilter GF/B filter plates (Perkin Elmer, Shelton, Conn.) using a 96-well tissue harvester (Packard) and followed by three filtration washes with 200 μl ice-cold binding buffer (10 mM NaH2PO4, 10 mM Na2HPO4, pH 7.4). Filter plates were subsequently dried at 50° C. for 2-3 hours. Fifty μl/well scintillation cocktail (Perkin Elmer, Shelton, Conn.) was added and plates were counted in a Packard Top-Count for 1 min/well.
κ GTP EC50 is the concentration of a compound providing 50% of the maximal response for the compound at a K receptor.
κ GTP Emax (%) is the maximal effect elicited by a compound relative to the effect elicited by U69,593.
In TABLE 2, activity response of certain Compounds of the Invention to the μ- and κ-opioid receptors was determined as described above for functional assays using U-2 OS cells.
Background: GTPγS resists hydrolysis and so accumulates on activated G proteins.

[4] abbreviates: bound given in μM, read-out: Opioid Receptor Ki μ.
[5] abbreviates: bound given in μM, read-out: Opioid Receptor Ki κ.
The mark [6] stands for this setting: read-out: Opioid Receptor Ki (nM) κ.
The mark [7] stands for this setting: read-out: Opioid Receptor Ki (nM) μ.

The term Ki denotes a dissociation constant, usually derived from enzyme kinetics or from competition with a known ligand. `COc1ccc2c3c1O[C@@H]1[C@]34CCN(CC3CC3)[C@H]([C@@H]2O)[C@]4(O)CC[C@]12NC(=O)NC2=O` (stereo in doubt) [Compound 9, (4S,4′R,4a′S,7a′R,12b′S,13′R)-3′-(cyclopropylmethyl)-4a′,13′-dihydroxy-9′-methoxy-2′,3′,4′,4a′,5′,6′-hexahydro-1′H,7a′H-spiro[imidazazolidine-4,7′-[4,12]methanobenzofuro[3,2-e]isoquinoline]-2,5-dione]: the Ki in test [1] (setting [4]) and in test [2] (setting [5]) was more than 20 µM throughout.
In the case of `COc1ccc2c(c1)[C@]13CCN(CC4CC4)[C@H](C2=O)[C@]1(O)CC[C@@]1(C3)NC(=O)NC1=O` [Compound 6, (4bR,4′S,8aS,9S)-11-(cyclopropylmethyl)-8a-hydroxy-3-methoxy-7,8,8a,9-tetrahydrospiro[9,4b-(epiminoethano)phenanthrene-6,4′-imidazolidine]-2′,5′,10(5H)-trione], the Ki in test [1] (setting [4]) is more than 20 µM; in test [2] (setting [6]), 1.05 ± 0.0846 µM.
Turning to `COc1ccc2c(c1)[C@]13CCN(CC4CC4)[C@H]([C@@H]2O)[C@]1(O)CC[C@@]1(C3)NC(=O)NC1=O` [Compound 7, (4bR,4′S,8aS,9R,10R)-11-(cyclopropylmethyl)-8a,10-dihydroxy-3-methoxy-5,7,8,8a,9,10-hexahydrospiro[9,4b-(epiminoethano)phenanthrene-6,4′-imidazolidine]-2′,5′-dione], the Ki in test [1] (setting [4]) and in test [2] (setting [5]) was more than 20 µM each time.
Turning to `COc1ccc2c3c1O[C@@H]1[C@]34CCN(CC3CC3)[C@H](C2=O)[C@]4(O)CC[C@]12NC(=O)NC2=O` [Compound 8, (4S,4′S,4a′S,7a′R,12b′S)-3′-(cyclopropylmethyl)-4a′-hydroxy-9′-methoxy-2′,3′,4′,4a′,5′,6′-hexahydro-1′H,7a′H-spiro[imidazolidine-4,7′-[4,12]methanobenzofuro[3,2-e]isoquinoline]-2,5,13′-trione], the Ki in test [1] (setting [4]) and in test [2] (setting [5]) was more than 20 µM throughout.
On to `COc1ccc2c(c1)[C@]13CCN(CC4CC4)[C@H]([C@@H]2O)[C@@H]1CC[C@@]1(C3)NC(=O)NC1=O` [Compound 10, (4bS,4′S,8aR,9S,10R)-11-(cyclopropylmethyl)-10-hydroxy-3-methoxy-5,7,8,8a,9,10-hexahydrospiro[9,4b-(epiminoethano)phenanthrene-6,4′-imidazolidine]-2′,5′-dione], for which the figures for the Ki in test [1] (setting [4]) and in test [2] (setting [6]) were more than 20 µM and 3.58 ± 0.647 µM, respectively.
As to `COc1ccc2c(c1)[C@]13CCN(C)[C@H](C2=O)[C@]1(O)CC[C@@]1(C3)NC(=O)NC1=O` [Compound 11, (4bR,4′S,8aS,9S)-8a-hydroxy-3-methoxy-11-methyl-7,8,8a,9-tetrahydrospiro [9,4b-(epiminoethano)phenanthrene-6,4′-imidazolidine]-2′,5′,10(5H)-trione], the Ki in test [1] (setting [4]) and in test [2] (setting [5]) was more than 20 µM in each case.
For the molecule `COc1ccc2c(c1)[C@]13CCN(C)[C@H]([C@@H]2O)[C@]1(O)CC[C@@]1(C3)NC(=O)NC1=O` [Compound 12, (4bR,4′S,8aS,9R,10R)-8a,10-dihydroxy-3-methoxy-11-methyl-5,7,8,8a,9,10-hexahydrospiro[9,4b-(epiminoethano)phenanthrene-6,4′-imidazolidine]-2′,5′-dione], the Ki is 12.6 µM in test [1] (setting [7]) and more than 20 µM in test [2] (setting [5]).
For orientation: EC50 means the concentration needed to bring the measured effect to its halfway point. As a reminder, the Emax is the greatest response seen or fitted, relative to the assay's reference. `O=C1NC(=O)[C@@]2(CC[C@@]3(O)[C@H]4[C@H](O)c5ccc(O)cc5[C@@]3(CCN4CC3CC3)C2)N1` [Compound 14, (4bR,4′S,8aS,9R,10R)-11-(cyclopropylmethyl)-3,8a,10-trihydroxy-5,7,8,8a,9,10-hexahydrospiro[9,4b-(epiminoethano)phenanthrene-6,4′-imidazolidine]-2′,5′-dione]: the Ki was 1.02 ± 0.0521 µM in test [1] (setting [7]) and 0.0781 ± 0.021 µM in test [2] (setting [6]). For the same molecule, it took 0.183 ± 0.0173 µM to reach a half-maximal effect in test [3] (EC50). The Emax in test [3] (functional assays using U-2 OS cells, relative to the effect elicited by U69,593) came to 111 ± 2.91%.
As for `O=C1NC(=O)[C@@]2(CC[C@@]3(O)[C@H]4C(=O)c5ccc(O)c6c5[C@@]3(CCN4CC3CC3)[C@H]2O6)N1` [Compound 15, (4S,4′S,4a′S,7a′R,12b′S)-3′-(cyclopropylmethyl)-4a′,9′-dihydroxy-2′,3′,4′,4a′,5′,6′-hexahydro-1′H,7a′H-spiro [imidazolidine-4,7′-[4,12]methanobenzofuro [3,2-e]isoquinoline]-2,5,13′-trione], the Ki in test [1] (setting [7]) worked out at 15.4 ± 3.13 µM; in test [2] (setting [6]) it was 2.52 ± 0.708 µM.
In the case of `O=C1NC(=O)[C@@]2(CC[C@@]3(O)[C@H]4[C@H](O)c5ccc(O)c6c5[C@@]3(CCN4CC3CC3)[C@H]2O6)N1` [Compound 16, (4S,4′R,4a′S,7a′R,12b′S,13′R)-3′-(cyclopropylmethyl)-4a′,9′,13′-trihydroxy-2′,3′,4′,4a′,5′,6′-hexahydro-1′H,7a′H-spiro[imidazolidine-4,7′-[4,12]methanobenzofuro [3,2-e]isoquinoline]-2,5-dione], the Ki in test [1] (setting [4]) and in test [2] (setting [5]) was more than 20 µM each time.
